Data as given in ChEMBL document CHEMBL4251553, “Synthesis, anticancer evaluation and pharmacokinetic study of novel 10-O-phenyl ethers of dihydroartemisinin” (Eur J Med Chem, 2017).

Tests used:
MCF7 = experiment: Antiproliferative activity against human MCF7 cells after 96 hrs by MTT assay; assay type: functional; settings: MCF7, 96 h
NCI/ADR-RES = experiment: Antiproliferative activity against human MCF7/ADR cells after 96 hrs by MTT assay; assay type: functional
[1] = Selectivity ratio of GI50 for human MCF7 cells to GI50 for human MCF7/ADR cells; assay type: functional
MDA-MB-231 = experiment: Antiproliferative activity against human MDA-MB-231 cells after 96 hrs by MTT assay; assay type: functional; settings: MDA-MB-231, 96 h
HL-60 = experiment: Antiproliferative activity against human HL60 cells after 96 hrs by MTT assay; assay type: functional; settings: HL-60, 96 h
U-937 = experiment: Antiproliferative activity against human U937 cells after 96 hrs by MTT assay; assay type: functional; settings: U-937, 96 h
K562 = experiment: Antiproliferative activity against human K562 cells after 96 hrs by MTT assay; assay type: functional; settings: K562, 96 h
NB-4 = experiment: Antiproliferative activity against human NB4 cells after 96 hrs by MTT assay; assay type: functional; settings: NB-4, 96 h
PC-3 = experiment: Antiproliferative activity against human PC3 cells after 96 hrs by MTT assay; assay type: functional; settings: PC-3, 96 h
LNCaP = experiment: Antiproliferative activity against human LNCAP cells after 96 hrs by MTT assay; assay type: functional
[2] = Apparent terminal half life in Sprague-Dawley rat at 10 mg/kg, iv administered as single dose by LC-MS/MS analysis; assay type: ADME, organism-based; settings: in vivo, read-out: betat1/2(app) (converted)
[3] = Cmax in Sprague-Dawley rat at 10 mg/kg, iv administered as single dose by LC-MS/MS analysis; assay type: ADME, organism-based; design: dose 10 mg/kg, route intravenous; settings: in vivo
[4] = AUC (0 to t) in Sprague-Dawley rat at 10 mg/kg, iv administered as single dose by LC-MS/MS analysis; assay type: ADME, organism-based; settings: in vivo
[5] = AUC (0 to infinity) in Sprague-Dawley rat at 10 mg/kg, iv administered as single dose by LC-MS/MS analysis; assay type: ADME, organism-based; design: dose 10 mg/kg, route intravenous, time infinity; settings: in vivo
[6] = Apparent volume of distribution in Sprague-Dawley rat at 10 mg/kg, iv administered as single dose by LC-MS/MS analysis; assay type: ADME, organism-based; settings: in vivo, read-out: Vz
[7] = Apparent clearance in Sprague-Dawley rat at 10 mg/kg, iv administered as single dose by LC-MS/MS analysis; assay type: ADME, organism-based; settings: in vivo, read-out: CL(app) (converted)
[8] = MRT (0 to infinity) in Sprague-Dawley rat at 10 mg/kg, iv administered as single dose by LC-MS/MS analysis; assay type: ADME, organism-based; settings: in vivo
[9] = Plasma concentration in Sprague-Dawley rat at 10 mg/kg, iv administered as single dose measured at 0.083 hrs post dosing by LC-MS/MS analysis; assay type: ADME, organism-based
[10] = Plasma concentration in Sprague-Dawley rat at 10 mg/kg, iv administered as single dose measured at 0.25 hrs post dosing by LC-MS/MS analysis; assay type: ADME, organism-based
[11] = Plasma concentration in Sprague-Dawley rat at 10 mg/kg, iv administered as single dose measured at 0.5 hrs post dosing by LC-MS/MS analysis; assay type: ADME, organism-based
[12] = Plasma concentration in Sprague-Dawley rat at 10 mg/kg, iv administered as single dose measured at 1 hr post dosing by LC-MS/MS analysis; assay type: ADME, organism-based
[13] = Plasma concentration in Sprague-Dawley rat at 10 mg/kg, iv administered as single dose measured at 2 hrs post dosing by LC-MS/MS analysis; assay type: ADME, organism-based
[14] = Plasma concentration in Sprague-Dawley rat at 10 mg/kg, iv administered as single dose measured at 4 hrs post dosing by LC-MS/MS analysis; assay type: ADME, organism-based
[15] = Plasma concentration in Sprague-Dawley rat at 10 mg/kg, iv administered as single dose measured at 8 hrs post dosing by LC-MS/MS analysis; assay type: ADME, organism-based
[16] = Plasma concentration in Sprague-Dawley rat at 10 mg/kg, iv administered as single dose measured at 24 hrs post dosing by LC-MS/MS analysis; assay type: ADME, organism-based

`Oc1ccc(-c2cc(-c3ccccc3)n[nH]2)cc1` gave a GI50 (MCF7) of 21200 nM, a GI50 (NCI/ADR-RES) of 18200 nM and a RatioGI50 [1] of 1.66.
In the case of `COc1ccc(C2CC(c3ccc(O[C@@H]4O[C@@H]5O[C@@]6(C)CC[C@H]7[C@H](C)CC[C@@H]([C@H]4C)[C@@]57OO6)cc3)=NN2C(C)=O)cc1` (stereo not given in full), the GI50 (MDA-MB-231) is reported as 990 nM, the GI50 (MCF7) is reported as 300 nM and the GI50 (NCI/ADR-RES) is reported as 51 nM. For the same compound, the RatioGI50 [1] was 5.9.
With `CC(=O)N1N=C(c2ccc(O[C@H]3O[C@@H]4O[C@@]5(C)CC[C@H]6[C@H](C)CC[C@@H]([C@H]3C)[C@@]46OO5)cc2)CC1c1ccccc1` (stereo not given in full) the GI50 (HL-60) was 25 nM, the GI50 (U-937) was 40 nM and the GI50 (K562) was 73 nM. For the same compound, the GI50 (NB-4) was 29 nM, the GI50 (PC-3) was 110 nM and the GI50 (LNCaP) was 93 nM. It also gave a GI50 (MDA-MB-231) of 420 nM, a GI50 (MCF7) of 130 nM and a GI50 (NCI/ADR-RES) of 61 nM. The RatioGI50 [1] was 2.1, the half-life [2] was 3.87 h and the Cmax [3] was 2430 ng/mL. It also gave an AUC(0-t) [4] of 4140 ng·h/mL, an AUC(0-inf) [5] of 4170 ng·h/mL and a Vd [6] of 13.7 L/kg. The clearance [7] was 41.3 mL/min/kg, the MRT inf [8] was 3.07 h and the concentration at 0.083 h [9] was 2430 ng/mL. The concentration at 0.25 h [10] was 1900 ng/mL, the concentration at 0.5 h [11] was 1260 ng/mL and the concentration at 1 h [12] was 935 ng/mL. For the same compound, the concentration at 2 h [13] was 523 ng/mL, the concentration at 4 h [14] was 224 ng/mL and the concentration at 8 h [15] was 63.9 ng/mL. The concentration at 24 h [16] was 6.73 ng/mL.
With `C[C@@H]1CC[C@H]2[C@@H](C)C(O)O[C@@H]3O[C@@]4(C)CC[C@@H]1[C@]32O4` (stereo not given in full) the GI50 (MCF7) was > 400000 nM.
`COc1ccc(-c2cc(-c3ccc(O[C@@H]4O[C@@H]5O[C@@]6(C)CC[C@H]7[C@H](C)CC[C@@H]([C@H]4C)[C@@]57OO6)cc3)n[nH]2)cc1` showed a GI50 (MDA-MB-231) of 1420 nM, a GI50 (MCF7) of 440 nM and a GI50 (NCI/ADR-RES) of 52 nM. It also gave a RatioGI50 [1] of 8.5.
For `COc1cccc2c1C(=O)c1c(O)c3c(c(O)c1C2=O)C[C@@](O)(C(=O)CO)C[C@@H]3O[C@H]1C[C@H](N)[C@H](O)[C@H](C)O1.Cl` [DOXORUBICIN HYDROCHLORIDE], the GI50 (MDA-MB-231) was 120 nM, the GI50 (MCF7) was 54 nM and the GI50 (NCI/ADR-RES) was 540 nM. The RatioGI50 [1] was 0.1.
With `CC(=O)N1N=C(c2ccc(O[C@@H]3O[C@@H]4O[C@@]5(C)CC[C@H]6[C@H](C)CC[C@@H]([C@H]3C)[C@@]46OO5)cc2)CC1c1ccc(Br)cc1` (stereo not given in full) the GI50 (MDA-MB-231) was 580 nM, the GI50 (MCF7) was 980 nM and the GI50 (NCI/ADR-RES) was 150 nM. It also gave a RatioGI50 [1] of 6.5.
In the case of `COc1ccc(-c2cc(-c3ccc(O[C@@H]4O[C@@H]5O[C@@]6(C)CC[C@H]7[C@H](C)CC[C@@H]([C@H]4C)[C@@]57OO6)cc3)n[nH]2)c(OC)c1`, the GI50 (MDA-MB-231) is reported as 760 nM, the GI50 (MCF7) is reported as 500 nM and the GI50 (NCI/ADR-RES) is reported as 41 nM. It also gave a RatioGI50 [1] of 12.2.
With `COc1ccc(-c2cc(-c3ccc(O[C@H]4O[C@@H]5O[C@@]6(C)CC[C@H]7[C@H](C)CC[C@@H]([C@H]4C)[C@@]57OO6)cc3)n[nH]2)cc1` the GI50 (MDA-MB-231) was 870 nM, the GI50 (MCF7) was 560 nM and the GI50 (NCI/ADR-RES) was 28 nM. For the same compound, the RatioGI50 [1] was 20.
With `CC(=O)N1N=C(c2ccc(O[C@H]3O[C@@H]4O[C@@]5(C)CC[C@H]6[C@H](C)CC[C@@H]([C@H]3C)[C@@]46O5)cc2)CC1c1ccccc1` (stereo not given in full) the GI50 (MCF7) was 11000 nM.
Compound `C[C@H]1[C@H](Oc2ccc(-c3cc(-c4ccc(Br)cc4)[nH]n3)cc2)O[C@@H]2O[C@@]3(C)CC[C@H]4[C@H](C)CC[C@@H]1[C@@]24OO3` has a GI50 (MDA-MB-231) of 550 nM, a GI50 (MCF7) of 440 nM and a GI50 (NCI/ADR-RES) of 30 nM. The RatioGI50 [1] was 14.7.
Compound `CC(=O)N1N=C(c2ccc(O)cc2)CC1c1ccccc1` (stereo not given) has a GI50 (MCF7) of 29100 nM, a GI50 (NCI/ADR-RES) of 38000 nM and a RatioGI50 [1] of 0.77.
`CC(=O)N1N=C(c2ccc(O[C@H]3O[C@@H]4O[C@@]5(C)CC[C@H]6[C@H](C)CC[C@@H]([C@H]3C)[C@@]46OO5)cc2)CC1c1ccc(Br)cc1` (stereo not given in full) gave a GI50 (MDA-MB-231) of 370 nM, a GI50 (MCF7) of 300 nM and a GI50 (NCI/ADR-RES) of 26 nM. For the same compound, the RatioGI50 [1] was 11.5.
